Laboratory results taken from US9321774B2, “Pyrrolobenzodiazepines” (MEDIMMUNE LIMITED, priority 2012, dated 2016).
Values after ≈ are worked out from the molar mass of the structure shown. Like-named read-outs stand apart in the source and are kept apart here.

Tests used:
Experiment in all cases: CLSI broth microplate assay, MIC
Format in all cases: cell-based
MRSA strain EMRSA-15 = conditions: Staphylococcus aureus, read-out: Minimum inhibitory concentration (MIC mg/L) EMRSA-15
MRSA strain EMRSA-16 = conditions: Staphylococcus aureus, read-out: Minimum inhibitory concentration (MIC mg/L) EMRSA-16
MRSA strain BB568 = conditions: Staphylococcus aureus, read-out: Minimum inhibitory concentration (MIC mg/L) BB568
[1] = tested on: community-associated MRSA isolate USA300; conditions: Staphylococcus aureus, read-out: Minimum inhibitory concentration (MIC mg/L) USA300
[2] = tested on: S. aureus VISA strain Mu50; conditions: Staphylococcus aureus, read-out: Minimum inhibitory concentration (MIC mg/L) Mu50
E. faecalis VRE1 = conditions: Enterococcus faecalis
E. faecium VRE10 = conditions: Enterococcus faecium
[3] = VRE1, read-out: Minimum inhibitory concentration (MIC mg/L) VRE1
[4] = VRE10, read-out: Minimum inhibitory concentration (MIC mg/L) VRE10
[5] = EMRSA-15, Mueller-Hinton broth, 37° C.
[6] = Mu50, Mueller-Hinton broth, 37° C.
[7] = VRE10, Mueller-Hinton broth, 37° C., read-out: Minimum inhibitory concentration (MIC mg/L) VRE10
[8] = EMRSA-16, Mueller-Hinton broth, 37° C.
[9] = BB568, Mueller-Hinton broth, 37° C.
[10] = VRE1, Mueller-Hinton broth, 37° C., read-out: Minimum inhibitory concentration (MIC mg/L) VRE1

Compound | MIC (MRSA strain EMRSA-15) | MIC (MRSA strain EMRSA-16) | MIC (MRSA strain BB568) | MIC [1] | MIC [2] | MIC (E. faecalis VRE1; [3]) | MIC (E. faecium VRE10; [4]) | MIC (MRSA strain EMRSA-15; [5]) | MIC [2, 6] | MIC (E. faecium VRE10; [7]) | MIC (MRSA strain EMRSA-16; [8]) | MIC (MRSA strain BB568; [9]) | MIC (E. faecalis VRE1; [10])
COC(=O)c1cc(-c2ccc(NC(=O)c3cc(-c4ccc(NC(=O)CCCOc5cc6c(cc5OC)C(=O)N5CCC[C@H]5C=N6)cc4)co3)cc2)cn1C [Compound 56, (S)-methyl 4-(4-(4-(4-(4-((7-methoxy-5-oxo-2,3,5,11a-tetrahydro-1H-benzo[e]pyrrolo[1,2-a][1,4]diazepin-8-yl)oxy)butanamido)phenyl)furan-2-carboxamido)phenyl)-1-methyl-1H-pyrrole-2-carboxylate] | 0.25 mg/L (≈ 0.343 µM) | 0.5 mg/L (≈ 0.685 µM) | 0.5 mg/L (≈ 0.685 µM) | 1 mg/L (≈ 1.37 µM) | 0.5 mg/L (≈ 0.685 µM) | 0.5 mg/L (≈ 0.685 µM) | 0.25 mg/L (≈ 0.343 µM) |  |  |  |  |  | 
COc1cc2c(cc1OCCCC(=O)Nc1ccc(-c3cc(C(=O)Nc4ccc(N5CCOCC5)nc4)n(C)c3)cc1)N=C[C@@H]1CCCN1C2=O [Compound 53, (S)-4-(4-(4-((7-methoxy-5-oxo-2,3,5,11a-tetrahydro-1H-benzo[e]pyrrolo[1,2-a][1,4]diazepin-8-yl)oxy)butanamido)phenyl)-1-methyl-N-(6-morpholinopyridin-3-yl)-1H-pyrrole-2-carboxamide] | 1 mg/L (≈ 1.45 µM) | 2 to 4 mg/L (≈ 2.89 to 5.78 µM) | 4 mg/L (≈ 5.78 µM) | 4 mg/L (≈ 5.78 µM) | 2 mg/L (≈ 2.89 µM) | 1 mg/L (≈ 1.45 µM) | 0.5 mg/L (≈ 0.723 µM) |  |  |  |  |  | 
COC(=O)c1cc(NC(=O)c2cc(NC(=O)c3cc(NC(=O)c4cc(NC(=O)c5cc(-c6ccc(NC(=O)CCCOc7cc8c(cc7OC)C(=O)N7CCC[C@H]7C=N8)cc6)cn5C)cn4C)cn3C)cn2C)cn1C [Compound 59] | 2 mg/L (≈ 1.94 µM) | 16 mg/L (≈ 15.5 µM) | 16 mg/L (≈ 15.5 µM) | 16 to 32 mg/L (≈ 15.5 to 31 µM) | 4 mg/L (≈ 3.87 µM) | 32 mg/L (≈ 31 µM) | 4 mg/L (≈ 3.87 µM) |  |  |  |  |  | 
COc1cc2c(cc1OCCCC(=O)Nc1cc(C(=O)Nc3ccc4occc4c3)n(C)c1)N=C[C@@H]1CCCN1C2=O [Compound 26, (S)—N-(benzofuran-5-yl)-4-(4-((7-methoxy-5-oxo-2,3,5,11a-tetrahydro-1H-benzo[e]pyrrolo[1,2-a][1,4]diazepin-8-yl)oxy)butanamido)-1-methyl-1H-pyrrole-2-carboxamide] |  | 0.125 mg/L (≈ 0.219 µM) | 0.125 mg/L (≈ 0.219 µM) | 0.125 mg/L (≈ 0.219 µM) |  | 0.06 to 0.125 mg/L (≈ 0.105 to 0.219 µM) |  | 0.06 mg/L (≈ 0.105 µM) | 0.06 mg/L (≈ 0.105 µM) | 0.06 mg/L (≈ 0.105 µM) |  |  | 
COc1cc2c(cc1OCCCC(=O)Nc1cn(C)c(C(=O)Nc3ccc(OCCN4CCOCC4)cc3)n1)N=C[C@@H]1CCCN1C2=O [Compound 39, (S)-4-(4-((7-methoxy-5-oxo-2,3,5,11a-tetrahydro-1H-benzo[e]pyrrolo[1,2-a][1,4]diazepin-8-yl)oxy)butanamido)-1-methyl-N-(4-(2-morpholinoethoxyl)phenyl)-1H-imidazole-2-carboxamide] |  |  |  | 0.5 mg/L (≈ 0.758 µM) |  |  |  | 0.25 mg/L (≈ 0.379 µM) | 0.125 mg/L (≈ 0.189 µM) | 0.5 mg/L (≈ 0.758 µM) | 0.25 mg/L (≈ 0.379 µM) | 0.25 to 0.5 mg/L (≈ 0.379 to 0.758 µM) | 0.125 mg/L (≈ 0.189 µM)
COc1cc2c(cc1OCCCC(=O)Nc1ccc(-c3cc(C(=O)Nc4ccc(N5CCOCC5)cc4)n(C)c3)cc1)N=C[C@@H]1CCCN1C2=O [Compound 49, (S)-4-(4-(4-((7-methoxy-5-oxo-2,3,5,11a-tetrahydro-1H-benzo[e]pyrrolo[1,2-a][1,4]diazepin-8-yl)oxy)butanamido)phenyl)-1-methyl-N-(4-morpholinophenyl)-1H-pyrrole-2-carboxamide] | 2 mg/L (≈ 2.9 µM) | 2 mg/L (≈ 2.9 µM) | 2 mg/L (≈ 2.9 µM) | 2 mg/L (≈ 2.9 µM) | 1 mg/L (≈ 1.45 µM) | 0.5 mg/L (≈ 0.724 µM) | 0.5 to 1 mg/L (≈ 0.724 to 1.45 µM) |  |  |  |  |  | 
COc1cc2c(cc1OCCCC(=O)Nc1ccc(-c3cc(C(=O)NCc4ccc(OCCN5CCOCC5)cc4)n(C)c3)cc1)N=C[C@@H]1CCCN1C2=O [Compound 52, (S)-4-(4-(4-((7-methoxy-5-oxo-2,3,5,11a-tetrahydro-1H-benzo[e]pyrrolo[1,2-a][1,4]diazepin-8-yl)oxy)butanamido)phenyl)-1-methyl-N-(4-(2-morpholinoethoxyl)benzyl)-1H-pyrrole-2-carboxamide] | 4 mg/L (≈ 5.34 µM) | 1 to 2 mg/L (≈ 1.34 to 2.67 µM) | 4 mg/L (≈ 5.34 µM) | 4 mg/L (≈ 5.34 µM) | 2 mg/L (≈ 2.67 µM) | 2 mg/L (≈ 2.67 µM) | 1 mg/L (≈ 1.34 µM) |  |  |  |  |  | 
COc1cc2c(cc1OCCCC(=O)Nc1cc(C(=O)Nc3ccc(N4CCOCC4)nc3)n(C)c1)N=C[C@@H]1CCCN1C2=O [Compound 31, (S)-4-(4-((7-methoxy-5-oxo-2,3,5,11a-tetrahydro-1H-benzo[e]pyrrolo[1,2-a][1,4]diazepin-8-yl)oxy)butanamido)-1-methyl-N-(6-morpholinopyridin-3-yl)-1H-pyrrole-2-carboxamide] | 0.5 mg/L (≈ 0.812 µM) | 4 mg/L (≈ 6.5 µM) | 4 mg/L (≈ 6.5 µM) | 1 mg/L (≈ 1.62 µM) |  | 1 mg/L (≈ 1.62 µM) | 0.5 mg/L (≈ 0.812 µM) |  |  |  |  |  | 
COC(=O)c1cc2cc(NC(=O)c3nc(NC(=O)CCCOc4cc5c(cc4OC)C(=O)N4CCC[C@H]4C=N5)cn3C)ccc2s1 [Compound 35, (S)-methyl 5-(4-(4-((7-methoxy-5-oxo-2,3,5,11a-tetrahydro-1H-benzo[e]pyrrolo[1,2-a][1,4]diazepin-8-yl)oxy)butanamido)-1-methyl-1H-imidazole-2-carboxamido)benzo[b]thiophene-2-carboxylate] | 0.06 mg/L (≈ 0.0931 µM) | 0.06 mg/L (≈ 0.0931 µM) | 0.06 mg/L (≈ 0.0931 µM) | 0.06 mg/L (≈ 0.0931 µM) |  | 0.06 mg/L (≈ 0.0931 µM) | 0.06 mg/L (≈ 0.0931 µM) |  |  |  |  |  | 
COc1cc2c(cc1OCCCC(=O)Nc1cn(C)c(C(=O)Nc3ccc(N4CCOCC4)nc3)n1)N=C[C@@H]1CCCN1C2=O [Compound 40, (S)-4-(4-((7-methoxy-5-oxo-2,3,5,11a-tetrahydro-1H-benzo[e]pyrrolo[1,2-a][1,4]diazepin-8-yl)oxy)butanamido)-1-methyl-N-(6-morpholinopyridin-3-yl)-1H-imidazole-2-carboxamide] | 0.125 mg/L (≈ 0.203 µM) | 0.5 mg/L (≈ 0.811 µM) | 0.5 mg/L (≈ 0.811 µM) | 0.125 mg/L (≈ 0.203 µM) |  | 0.25 mg/L (≈ 0.405 µM) | 0.125 mg/L (≈ 0.203 µM) |  |  |  |  |  | 
COc1cc2c(cc1OCCCC(=O)Nc1cn(C)c(C(=O)Nc3ccc(N4CCOCC4)cc3)n1)N=C[C@@H]1CCCN1C2=O [Compound 37, (S)-4-(4-((7-methoxy-5-oxo-2,3,5,11a-tetrahydro-1H-benzo[e]pyrrolo[1,2-a][1,4]diazepin-8-yl)oxy)butanamido)-1-methyl-N-(4-morpholinophenyl)-1H-imidazole-2-carboxamide] | 0.125 mg/L (≈ 0.203 µM) | 0.5 mg/L (≈ 0.812 µM) | 0.5 mg/L (≈ 0.812 µM) | 0.125 mg/L (≈ 0.203 µM) |  | 0.25 mg/L (≈ 0.406 µM) | 0.125 mg/L (≈ 0.203 µM) |  |  |  |  |  | 
COC(=O)c1cc(NC(=O)c2cc(-c3ccc(NC(=O)CCCOc4cc5c(cc4OC)C(=O)N4CCC[C@H]4C=N5)cc3)co2)cn1C [Compound 54, (S)-methyl 4-(4-(4-(4-((7-methoxy-5-oxo-2,3,5,11a-tetrahydro-1H-benzo[e]pyrrolo[1,2-a][1,4]diazepin-8-yl)oxy)butanamido)phenyl)furan-2-carboxamido)-1-methyl-1H-pyrrole-2-carboxylate] |  |  |  | 0.06 mg/L (≈ 0.0918 µM) |  |  |  | < 0.03 mg/L | 0.03 mg/L (≈ 0.0459 µM) | < 0.03 mg/L | 0.06 mg/L (≈ 0.0918 µM) | 0.125 mg/L (≈ 0.191 µM) | 0.06 mg/L (≈ 0.0918 µM)
COC(=O)c1cc2cc(NC(=O)c3cc(NC(=O)CCCOc4cc5c(cc4OC)C(=O)N4CCC[C@H]4C=N5)cn3C)ccc2s1 [Compound 28, (S)-methyl 5-(4-(4-((7-methoxy-5-oxo-2,3,5,11a-tetrahydro-1H-benzo[e]pyrrolo[1,2-a][1,4]diazepin-8-yl)oxy)butanamido)-1-methyl-1H-pyrrole-2-carboxamido)benzo[b]thiophene-2-carboxylate] | 0.06 mg/L (≈ 0.0932 µM) | 0.125 mg/L (≈ 0.194 µM) | 0.125 mg/L (≈ 0.194 µM) | 0.06 mg/L (≈ 0.0932 µM) |  | 0.06 mg/L (≈ 0.0932 µM) | 0.06 mg/L (≈ 0.0932 µM) |  |  |  |  |  | 
COc1cc2c(cc1OCCCC(=O)Nc1cc(C(=O)Nc3ccc(N4CCOCC4)cc3)n(C)c1)N=C[C@@H]1CCCN1C2=O [Compound 30, (S)-4-(4-((7-methoxy-5-oxo-2,3,5,11a-tetrahydro-1H-benzo[e]pyrrolo[1,2-a][1,4]diazepin-8-yl)oxy)butanamido)-1-methyl-N-(4-morpholinophenyl)-1H-pyrrole-2-carboxamide] |  |  |  | 0.5 mg/L (≈ 0.813 µM) |  |  |  | 0.5 mg/L (≈ 0.813 µM) |  | 0.5 mg/L (≈ 0.813 µM) | 2 mg/L (≈ 3.25 µM) | 2 mg/L (≈ 3.25 µM) | 1 mg/L (≈ 1.63 µM)
COc1cc2c(cc1OCCCC(=O)Nc1ccc(-c3cc(C(=O)Nc4ccc(OCCN5CCOCC5)cc4)n(C)c3)cc1)N=C[C@@H]1CCCN1C2=O [Compound 51, (S)-4-(4-(4-((7-methoxy-5-oxo-2,3,5,11a-tetrahydro-1H-benzo[e]pyrrolo[1,2-a][1,4]diazepin-8-yl)oxy)butanamido)phenyl)-1-methyl-N-(4-(2-morpholinoethoxyl)phenyl)-1H-pyrrole-2-carboxamide] |  |  |  | 2 mg/L (≈ 2.72 µM) |  |  |  | 2 mg/L (≈ 2.72 µM) | 1 mg/L (≈ 1.36 µM) | 1 mg/L (≈ 1.36 µM) | 2 mg/L (≈ 2.72 µM) | 2 mg/L (≈ 2.72 µM) | 0.5 mg/L (≈ 0.68 µM)
